Biological target: T1, BCAT2 (Homo sapiens, UniProt O15382)
T1 sequence (O15382 28-392): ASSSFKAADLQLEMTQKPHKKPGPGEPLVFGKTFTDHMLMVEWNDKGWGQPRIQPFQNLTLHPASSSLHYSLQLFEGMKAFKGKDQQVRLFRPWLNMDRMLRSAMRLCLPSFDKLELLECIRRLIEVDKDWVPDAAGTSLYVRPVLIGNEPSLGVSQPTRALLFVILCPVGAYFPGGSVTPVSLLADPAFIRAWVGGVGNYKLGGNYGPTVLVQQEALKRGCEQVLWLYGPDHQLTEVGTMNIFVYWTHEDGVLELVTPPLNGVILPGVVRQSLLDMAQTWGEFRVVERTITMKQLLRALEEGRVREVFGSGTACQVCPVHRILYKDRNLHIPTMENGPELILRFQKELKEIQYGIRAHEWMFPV
Assay: BCAT2 in vitro enzyme inhibition assay (hBCAT2, glutamate dehydrogenase/diaphorase/resazurin coupled fluorescence read)
Assay type: biochemical
Settings: hBCAT2, 1 h preincubation at 25° C., one hour reaction; average where tested multiple times
Outline: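 Coupled GDH/diaphorase/resazurin fluorescence (Ex 540/Em 590) read after 1 h reaction at 25 °C, SDS-stopped; enzyme (0.33 μg/mL in mix) first preincubated 1 h with compound, 10-point 3-fold series from 100 μM final, Tris pH 8.0 buffer with NaCl, BSA; technical duplicates, averaged across tests.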

| SMILES | IC50 [nM] |
| --- | --- |
| COc1ccc(Cl)cc1C(=O)N[C@H]1C[C@@H](n2c(-c3ncccc3F)nc3cnc(-c4nc[nH]n4)cc32)CN(C)C1 [Example 138, 5-chloro-N-((3S,5R)-5-(2-(3-fluoropyridin-2-yl)-6-(1H-1,2,4-triazol-3-yl)-1H-imidazo[4,5-c]pyridin-1-yl)-1-methylpiperidin-3-yl)-2-methoxybenzamide] | > 1000 |
| CC(Oc1ccccc1-c1nc2cnc(-c3nc[nH]n3)cc2n1[C@@H]1CCC[C@H](NC(=O)c2cc(Cl)ccn2)C1)C(F)(F)F (stereo partly drawn) [Example 92, N-((1S,3R)-3-(6-(1H-1,2,4-triazol-3-yl)-2-(2-((1,1,1-trifluoropropan-2-yl)oxy)phenyl)-1H-imidazo[4,5-c]pyridin-1-yl)cyclohexyl)-4-chloropicolinamide] | > 1000 |
| CN1C[C@@H](NC(=O)c2cc(F)ccc2F)C[C@@H](n2c(-c3ccccc3OCCO)nc3cnc(-n4nccn4)cc32)C1 [Example 154, 2,5-difluoro-N-((3S,5R)-5-(2-(2-(2-hydroxyethoxy)phenyl)-6-(2H-1,2,3-triazol-2-yl)-1H-imidazo[4,5-c]pyridin-1-yl)-1-methylpiperidin-3-yl)benzamide] | > 1000 |
| COc1ccc(Cl)cc1C(=O)N[C@@H]1C[C@@H](OC)C[C@H](n2c(-c3ccccc3F)nc3cnc(-c4nc[nH]n4)cc32)C1 [Example 107, 5-chloro-N-((1S,3R,5R)-3-(2-(2-fluorophenyl)-6-(1H-1,2,4-triazol-3-yl)-1H-imidazo[4,5-c]pyridin-1-yl)-5-methoxycyclohexyl)-2-methoxybenzamide] | > 1000 |
| CN1C[C@@H](NC(=O)c2cc(Cl)ccn2)C[C@@H](n2c(-c3ncccc3F)nc3cnc(-c4nc[nH]n4)cc32)C1 [Example 131, 4-chloro-N-((3S,5R)-5-(2-(3-fluoropyridin-2-yl)-6-(1H-1,2,4-triazol-3-yl)-1H-imidazo[4,5-c]pyridin-1-yl)-1-methylpiperidin-3-yl)picolinamide] | > 1000 |
| CS(=O)(=O)c1ccc(Cl)cc1C(=O)N[C@H]1CCC[C@@H](n2c(-c3ccccc3F)nc3cnc(-c4nc[nH]n4)cc32)C1 [Example 12, 5-chloro-N-((1S,3R)-3-(2-(2-fluorophenyl)-6-(1H-1,2,4-triazol-3-yl)-1H-imidazo[4,5-c]pyridin-1-yl)cyclohexyl)-2-(methylsulfonyl)benzamide] | > 1000 |
| CC(Oc1ccccc1-c1nc2cnc(-c3nc[nH]n3)cc2n1[C@@H]1CCC[C@H](NC(=O)c2cc(Cl)ccn2)C1)C(F)(F)F (stereo partly drawn) [Example 91, N-((1S,3R)-3-(6-(1H-1,2,4-triazol-3-yl)-2-(2-((1,1,1-trifluoropropan-2-yl)oxy)phenyl)-1H-imidazo[4,5-c]pyridin-1-yl)cyclohexyl)-4-chloropicolinamide] | > 1000 |
| CC(C)(Cc1nc2cnc(-c3nc[nH]n3)cc2n1[C@@H]1CCC[C@H](NC(=O)c2cc(Cl)ccn2)C1)C(N)=O [Example 44, N-((1S,3R)-3-(2-(3-amino-2,2-dimethyl-3-oxopropyl)-6-(1H-1,2,4-triazol-3-yl)-1H-imidazo[4,5-c]pyridin-1-yl)cyclohexyl)-4-chloropicolinamide] | > 1000 |
| CO[C@H]1C[C@H](NC(=O)c2cc(F)ccn2)C[C@H](n2c(-c3ccccc3OCCO)nc3ccc(-c4ncco4)cc32)C1 [Example 223, 4-fluoro-N-((1R,3S,5S)-3-(2-(2-(2-hydroxyethoxy)phenyl)-6-(oxazol-2-yl)-1H-benzo[d]imid-azol-1-yl)-5-methoxycyclohex-yl)picolinamide] | 100 to 500 |
| CN1C[C@@H](NC(=O)c2cc(Cl)ccn2)C[C@@H](n2c(-c3ccccc3OCCO)nc3cnc(-c4ncco4)cc32)C1 [Example 160, 4-chloro-N-((3S,5R)-5-(2-(2-(2-hydroxyethoxy)phenyl)-6-(oxazol-2-yl)-1H-imidazo[4,5-c]pyridin-1-yl)-1-methylpiperidin-3-yl)picolinamide] | > 1000 |
| CC(C)OCc1nc2cnc(-c3nc[nH]n3)cc2n1[C@@H]1CCC[C@H](NC(=O)c2cc(Cl)ccn2)C1 [Example 20, 4-chloro-N-((1S,3R)-3-(2-(isopropoxymethyl)-6-(1H-1,2,4-triazol-3-yl)-1H-imidazo[4,5-c]pyridin-1-yl)cyclohexyl)picolinamide] | > 1000 |

The remaining lines, values ahead:

| IC50 [nM] | SMILES |
| --- | --- |
| < 100 | COc1ccc(C(F)(F)F)cc1C(=O)N[C@H]1CCC[C@@H](n2c(-c3ccccc3F)nc3cnc(-c4nc[nH]n4)cc32)C1 [Example 9, N-((1S,3R)-3-(2-(2-fluorophenyl)-6-(1H-1,2,4-triazol-3-yl)-1H-imidazo[4,5-c]pyridin-1-yl)cyclohexyl)-2-methoxy-5-(trifluoromethyl)benzamide] |
| < 100 | N#Cc1ccccc1-c1nc2cnc(-c3nc[nH]n3)cc2n1[C@@H]1CCC[C@H](NC(=O)c2cc(F)ccn2)C1 [Example 46, N-((1S,3R)-3-(2-(2-cyanophenyl)-6-(1H-1,2,4-triazol-3-yl)-1H-imidazo[4,5-c]pyridin-1-yl)cyclohexyl)-4-fluoropicolinamide] |
| < 100 | NC1CC(N2Cc3ccc(F)cc3C2=O)CC(n2c(-c3ccccc3F)nc3cnc(-c4nc[nH]n4)cc32)C1 (stereo not shown) [Example 196, 2-(3-amino-5-(2-(2-fluorophenyl)-6-(1H-1,2,4-triazol-3-yl)-1H-imidazo[4,5-c]pyridin-1-yl)cyclohexyl)-6-fluoroisoindolin-1-one] |
| < 100 | COc1ccnc(C(=O)N[C@H]2CCC[C@@H](n3c(-c4ncccc4OC(F)F)nc4cnc(-c5nc[nH]n5)cc43)C2)c1 [compound 64] |
| < 100 | N[C@@H]1[C@@H](NC(=O)c2cc(F)ccc2F)CCC[C@H]1n1c(-c2ccccc2F)nc2cnc(-c3nc[nH]n3)cc21 [Example 127, N-((1S,2R,3R)-2-amino-3-(2-(2-fluorophenyl)-6-(1H-1,2,4-triazol-3-yl)-1H-imidazo[4,5-c]pyridin-1-yl)cyclohexyl)-2,5-difluorobenzamide] |
| < 100 | CN1C[C@H](NC(=O)c2cc(Cl)ccn2)C[C@H](n2c(-c3ccccc3OCCO)nc3ccc(-c4ncccn4)cc32)C1 [Example 234, 4-chloro-N-((3R,5S)-5-(2-(2-(2-hydroxyethoxy)phenyl)-6-(pyr-imidin-2-yl)-1H-benzo[d]imid-azol-1-yl)-1-methylpiperidin-3-yl)picolinamide] |
| < 100 | CN1C[C@H](N2Cc3ccc(F)cc3C2=O)C[C@H](n2c(-c3ccccc3OCCO)nc3cnc(-c4nc[nH]n4)cc32)C1 [Example 197, 6-fluoro-2-((3R,5S)-5-(2-(2-(2-hydroxyethoxy)phenyl)-6-(1H-1,2,4-triazol-3-yl)-1H-imidazo[4,5-c]pyridin-1-yl)-1-methylpiperidin-3-yl)isoindolin-1-one] |
| < 100 | CC(=O)N1C[C@@H](N2Cc3ccc(F)cc3C2=O)C[C@@H](n2c(-c3ccccc3F)nc3cnc(-n4nccn4)cc32)C1 [Example 199, 2-((3S,5R)-1-acetyl-5-(2-(2-fluorophenyl)-6-(2H-1,2,3-triazol-2-yl)-1H-imidazo[4,5-c]pyridin-1-yl)piperidin-3-yl)-6-fluoroisoindolin-1-one] |
| 100 to 500 | O=C(N[C@H]1CCC[C@@H](n2c(-c3ccccc3F)nc3cnc(N4CCCC4)cc32)C1)c1cc(Cl)ccn1 [Example 28, 4-chloro-N-((1S,3R)-3-(2-(2-fluorophenyl)-6-(pyrrolidin-1-yl)-1H-imidazo[4,5-c]pyridin-1-yl)cyclohexyl)picolinamide] |
| < 100 | N#Cc1ccccc1-c1nc2cnc(-c3nc(C(F)(F)F)co3)cc2n1[C@@H]1CCC[C@H](NC(=O)c2cc(F)ccn2)C1 [Example 99, N-((1S,3R)-3-(2-(2-cyanophenyl)-6-(4-(trifluoromethyl)oxazol-2-yl)-1H-imidazo[4,5-c]pyridin-1-yl)cyclohexyl)-4-fluoropicolinamide] |
| < 100 | O=C(N[C@H]1CCC[C@@H](n2c(-c3ncccc3OC(F)F)nc3cnc(-c4nc[nH]n4)cc32)C1)c1cc(F)ccn1 [compound 63] |
| 100 to 500 | CN1C[C@@H](NC(=O)c2cc(F)ccc2F)C[C@@H](n2c(-c3ccccc3F)nc3cnc(-c4nc[nH]n4)cc32)C1 [Example 152, 2,5-difluoro-N-((3S,5R)-5-(2-(2-fluorophenyl)-6-(1H-1,2,4-triazol-3-yl)-1H-imidazo[4,5-c]pyridin-1-yl)-1-methylpiperidin-3-yl)benzamide] |
| 100 to 500 | CN1C[C@@H](NC(=O)c2cc(Cl)ccc2OCCO)C[C@@H](n2c(-c3ccccc3F)nc3cnc(-c4nc[nH]n4)cc32)C1 [Example 151, 5-chloro-N-((3S,5R)-5-(2-(2-fluorophenyl)-6-(1H-1,2,4-triazol-3-yl)-1H-imidazo[4,5-c]pyridin-1-yl)-1-methylpiperidin-3-yl)-2-(2-hydroxyethoxy)benzamide] |
| < 100 | COc1ccc(Cl)cc1C(=O)N[C@H]1CCC[C@@H](n2c(-c3ccccc3C#N)nc3cnc(-c4nc[nH]n4)cc32)[C@@H]1O [Example 108, 5-chloro-N-((1S,2R,3R)-3-(2-(2-cyanophenyl)-6-(1H-1,2,4-triazol-3-yl)-1H-imidazo[4,5-c]pyridin-1-yl)-2-hydroxycyclohexyl)-2-methoxybenzamide] |
